Laboratory results published in paper PMC5478271, “Chemical structure-guided design of dynapyrazoles, cell-permeable dynein inhibitors with a unique mode of action” (eLife, 2017).

Key:
[1] = target: T1, human cytoplasmic dynein 2 (GFP-dynein 2, amino acids 1091–4307) (Homo sapiens, UniProt Q8NCM8); test: Microtubule gliding (motility) assay with GFP-dynein 2; format: biochemical; conditions: 0.05 mg/mL casein; for Velocity of dynein-2-driven microtubule gliding: 20 µM compound, solvent control 128 ± 14 nm/s, mean ± S.D.; for Velocity of dynein-2-driven microtubule gliding / IC50: 1 mM MgATP, 2% DMSO; for IC50: read-out: IC50, inhibition of GFP-dynein-2-driven motility
T1 construct: (AA 1091–4307, uniprot: Q8NCM8); protein A tag (followed by TEV-cleavable linker) (N, cleaved yes); made in house; host or cells: Sf9 insect cells (baculovirus)
Procedure: We purified an N-terminally GFP-tagged motor-domain construct of dynein 2 using an insect cell expression system ([Schmidt et al., 2015]). The GFP tag in this construct (GFP-dynein 2, amino acids 1091–4307) allowed the motor protein to be immobilized on passivated glass coverslips used in microtubule gliding assays. GFP-dynein 2 was obtained as a mono-disperse peak by gel filtration (Figure 2D and E). In the presence of ATP (1 mM), this protein moved microtubules with a velocity of 128 ± 14 nm/s (mean ± SD, Figure 2G and I).
Reaction setup: A coverslip-based motility assay was adapted from similar assays reported previously ([Firestone et al., 2012]; [Schmidt et al., 2015]). A flow chamber assembled on a pre-cleaned microscope coverslide (3–5 µL chamber volume) was hydrated with buffer A (25 mM PIPES, 30 mM KCl, 5 mM MgCl2, 1 mM EGTA, 0.01% Triton X-100, 1 mM DTT, 20 µM taxol, pH 7.0 with KOH). Anti-GFP antibody (0.4 mg/mL, affinity purified rabbit antibody) was flowed into the chamber and allowed to adhere non-specifically to the glass for 20 s. The surface was blocked using 0.5 mg/mL α-casein in buffer A. Excess protein was then washed away with buffer A. GFP-dynein motor domain was diluted in buffer A supplemented with 1 mM DTT and 0.1 mM ATP (2 mM DTT final; GFP-dynein 2 diluted to: 180 nM; GFP-dynein 1 diluted to: 60 nM), flowed into the chamber and allowed to bind for 20 s. Excess protein was washed away with buffer A. Reaction mix (25 mM PIPES, 90 mM KCl, 6 mM MgCl2, 1 mM EGTA, 0.01% Triton X-100, 3 mM DTT, 20 µM taxol, 1 mM ATP, 1x oxygen scavenging system components [4.5 mg/mL glucose, 35 µg/mL catalase, 200 µg/mL glucose oxidase], 2% final DMSO [v/v] with compounds at appropriate concentrations, 0.05 mg/mL α-casein, microtubules [rhodamine labeled, purified from bovine brain, GMP-CPP and Taxol-stabilized], pH 7.0 with KOH) was flowed into the chamber using ~4 chamber volumes. For experiments shown in Figure 4—figure supplement 1, α-casein concentration in reaction mix was 0.5 mg/mL and all other parameters were held constant.
For reversibility experiments, motility in the presence of 5 µM 8 was observed as above, and upon completion of imaging, the chamber, fresh buffer A supplemented with 1 mM ATP was flowed into the chamber and incubated for 1 min; this wash and incubation cycle was repeated twice. Reaction mix containing DMSO (no compound) was flowed into the chamber using ~4 chamber volumes. The chamber was sealed with valap and returned to the microscope.
Microscopy conditions: Following addition of reaction mix, microtubules were allowed to bind for 5 min before imaging. For reversibility experiments, microtubules were allowed to bind for 10 min before imaging. Videos were taken on a Zeiss Axiovert 200M wide-field microscope equipped with a Zeiss 100x/1.45 NA α-Plan-Fluar objective. Data were captured with an EM-CCD camera (iXon DU-897, Andor Technology) with a 0.2 s exposure time and frame rate of 0.25–0.5/second. Four 10–20 s videos were captured per experimental condition. Velocities were measured using the kymograph tool in FIJI ([Schindelin et al., 2012]). Data analysis is discussed below under ‘General data analysis procedures.’
Microtubule velocity measurements: the tracks of microtubules were traced and converted to kymographs (x axis-displacement, y axis-time) using the kymograph function of FIJI (RRID: SCR_002285). The angle formed between an edge of a microtubule and the horizontal was measured. This angle, θ, was converted into velocity using the following relationship: velocity = 1/|tangent(θ)| * (unit pixel distance)/(time interval between frames).
The calibrated pixel distance was 0.152 µm and the time interval between frames was either 2 or 4 s. The velocities of at least seven microtubules were measured per field of view, if sufficient tracks could be found. In cases where fewer than seven microtubules were found in a field of view, velocities of all microtubules on the coverslip were measured. […]

[2] = target: T2, GFP-dynein 1 (Homo sapiens, UniProt Q14204); test: Basal ATPase activity of GFP-dynein 1; format: biochemical; conditions: 40 µM compound, 1 mM MgATP, 2% DMSO; control 0.62 ± 0.2 s^−1
T2 construct: (AA 1320–4646 with additional valine [at position 4647], uniprot Q14204); protein A tag (followed by TEV-cleavable linker) (N, cleaved yes); made in house; host or cells: insect cells (baculovirus)
Procedure: ATPase assays using recombinant Dynein 1 (wild-type and mutants) were performed in a buffer containing 25 mM PIPES pH7.0, 30 mM KCl, 1 mM EGTA, 5 mM MgCl2, 0.01% triton X-100, 1 mM DTT, and 20–30 µM taxol (if microtubules were present). For typical conditions, enzyme was incubated with varying concentrations of inhibitor in buffer containing 2% DMSO for 10 min in a volume of 10 μL. When microtubules were present, they were polymerized by stepwise addition of taxol and high concentrations of DMSO (30% final during polymerization reactions), and re-suspended following centrifugation in ATPase buffer to a concentration up to threefold above the final concentration used in the reaction (bovine brain tubulin, no fluoresecent label). For microtubule-stimulated reactions in dose-response format, reactions were assembled by 1:1:1 mixture of 3x enzyme stock, 3x compound stock (in buffer with 6% DMSO), and 3x microtubule stock to each well. For microtubule-stimulated ATPase assays at tubulin concentrations > 2.5 µM, enzyme stock was supplemented with compound stock in pure DMSO (resulting in an intermediate DMSO concentration of 6%), and then the microtubule stock was added. […]
Assembled reaction mixtures (including enzyme, compound, and microtubules, if present) were incubated for 10 min before addition of ATP. […] The fraction of γ-phosphate hydrolyzed in each condition was quantified using FIJI.

T1 sequence (Q8NCM8 1091-4307): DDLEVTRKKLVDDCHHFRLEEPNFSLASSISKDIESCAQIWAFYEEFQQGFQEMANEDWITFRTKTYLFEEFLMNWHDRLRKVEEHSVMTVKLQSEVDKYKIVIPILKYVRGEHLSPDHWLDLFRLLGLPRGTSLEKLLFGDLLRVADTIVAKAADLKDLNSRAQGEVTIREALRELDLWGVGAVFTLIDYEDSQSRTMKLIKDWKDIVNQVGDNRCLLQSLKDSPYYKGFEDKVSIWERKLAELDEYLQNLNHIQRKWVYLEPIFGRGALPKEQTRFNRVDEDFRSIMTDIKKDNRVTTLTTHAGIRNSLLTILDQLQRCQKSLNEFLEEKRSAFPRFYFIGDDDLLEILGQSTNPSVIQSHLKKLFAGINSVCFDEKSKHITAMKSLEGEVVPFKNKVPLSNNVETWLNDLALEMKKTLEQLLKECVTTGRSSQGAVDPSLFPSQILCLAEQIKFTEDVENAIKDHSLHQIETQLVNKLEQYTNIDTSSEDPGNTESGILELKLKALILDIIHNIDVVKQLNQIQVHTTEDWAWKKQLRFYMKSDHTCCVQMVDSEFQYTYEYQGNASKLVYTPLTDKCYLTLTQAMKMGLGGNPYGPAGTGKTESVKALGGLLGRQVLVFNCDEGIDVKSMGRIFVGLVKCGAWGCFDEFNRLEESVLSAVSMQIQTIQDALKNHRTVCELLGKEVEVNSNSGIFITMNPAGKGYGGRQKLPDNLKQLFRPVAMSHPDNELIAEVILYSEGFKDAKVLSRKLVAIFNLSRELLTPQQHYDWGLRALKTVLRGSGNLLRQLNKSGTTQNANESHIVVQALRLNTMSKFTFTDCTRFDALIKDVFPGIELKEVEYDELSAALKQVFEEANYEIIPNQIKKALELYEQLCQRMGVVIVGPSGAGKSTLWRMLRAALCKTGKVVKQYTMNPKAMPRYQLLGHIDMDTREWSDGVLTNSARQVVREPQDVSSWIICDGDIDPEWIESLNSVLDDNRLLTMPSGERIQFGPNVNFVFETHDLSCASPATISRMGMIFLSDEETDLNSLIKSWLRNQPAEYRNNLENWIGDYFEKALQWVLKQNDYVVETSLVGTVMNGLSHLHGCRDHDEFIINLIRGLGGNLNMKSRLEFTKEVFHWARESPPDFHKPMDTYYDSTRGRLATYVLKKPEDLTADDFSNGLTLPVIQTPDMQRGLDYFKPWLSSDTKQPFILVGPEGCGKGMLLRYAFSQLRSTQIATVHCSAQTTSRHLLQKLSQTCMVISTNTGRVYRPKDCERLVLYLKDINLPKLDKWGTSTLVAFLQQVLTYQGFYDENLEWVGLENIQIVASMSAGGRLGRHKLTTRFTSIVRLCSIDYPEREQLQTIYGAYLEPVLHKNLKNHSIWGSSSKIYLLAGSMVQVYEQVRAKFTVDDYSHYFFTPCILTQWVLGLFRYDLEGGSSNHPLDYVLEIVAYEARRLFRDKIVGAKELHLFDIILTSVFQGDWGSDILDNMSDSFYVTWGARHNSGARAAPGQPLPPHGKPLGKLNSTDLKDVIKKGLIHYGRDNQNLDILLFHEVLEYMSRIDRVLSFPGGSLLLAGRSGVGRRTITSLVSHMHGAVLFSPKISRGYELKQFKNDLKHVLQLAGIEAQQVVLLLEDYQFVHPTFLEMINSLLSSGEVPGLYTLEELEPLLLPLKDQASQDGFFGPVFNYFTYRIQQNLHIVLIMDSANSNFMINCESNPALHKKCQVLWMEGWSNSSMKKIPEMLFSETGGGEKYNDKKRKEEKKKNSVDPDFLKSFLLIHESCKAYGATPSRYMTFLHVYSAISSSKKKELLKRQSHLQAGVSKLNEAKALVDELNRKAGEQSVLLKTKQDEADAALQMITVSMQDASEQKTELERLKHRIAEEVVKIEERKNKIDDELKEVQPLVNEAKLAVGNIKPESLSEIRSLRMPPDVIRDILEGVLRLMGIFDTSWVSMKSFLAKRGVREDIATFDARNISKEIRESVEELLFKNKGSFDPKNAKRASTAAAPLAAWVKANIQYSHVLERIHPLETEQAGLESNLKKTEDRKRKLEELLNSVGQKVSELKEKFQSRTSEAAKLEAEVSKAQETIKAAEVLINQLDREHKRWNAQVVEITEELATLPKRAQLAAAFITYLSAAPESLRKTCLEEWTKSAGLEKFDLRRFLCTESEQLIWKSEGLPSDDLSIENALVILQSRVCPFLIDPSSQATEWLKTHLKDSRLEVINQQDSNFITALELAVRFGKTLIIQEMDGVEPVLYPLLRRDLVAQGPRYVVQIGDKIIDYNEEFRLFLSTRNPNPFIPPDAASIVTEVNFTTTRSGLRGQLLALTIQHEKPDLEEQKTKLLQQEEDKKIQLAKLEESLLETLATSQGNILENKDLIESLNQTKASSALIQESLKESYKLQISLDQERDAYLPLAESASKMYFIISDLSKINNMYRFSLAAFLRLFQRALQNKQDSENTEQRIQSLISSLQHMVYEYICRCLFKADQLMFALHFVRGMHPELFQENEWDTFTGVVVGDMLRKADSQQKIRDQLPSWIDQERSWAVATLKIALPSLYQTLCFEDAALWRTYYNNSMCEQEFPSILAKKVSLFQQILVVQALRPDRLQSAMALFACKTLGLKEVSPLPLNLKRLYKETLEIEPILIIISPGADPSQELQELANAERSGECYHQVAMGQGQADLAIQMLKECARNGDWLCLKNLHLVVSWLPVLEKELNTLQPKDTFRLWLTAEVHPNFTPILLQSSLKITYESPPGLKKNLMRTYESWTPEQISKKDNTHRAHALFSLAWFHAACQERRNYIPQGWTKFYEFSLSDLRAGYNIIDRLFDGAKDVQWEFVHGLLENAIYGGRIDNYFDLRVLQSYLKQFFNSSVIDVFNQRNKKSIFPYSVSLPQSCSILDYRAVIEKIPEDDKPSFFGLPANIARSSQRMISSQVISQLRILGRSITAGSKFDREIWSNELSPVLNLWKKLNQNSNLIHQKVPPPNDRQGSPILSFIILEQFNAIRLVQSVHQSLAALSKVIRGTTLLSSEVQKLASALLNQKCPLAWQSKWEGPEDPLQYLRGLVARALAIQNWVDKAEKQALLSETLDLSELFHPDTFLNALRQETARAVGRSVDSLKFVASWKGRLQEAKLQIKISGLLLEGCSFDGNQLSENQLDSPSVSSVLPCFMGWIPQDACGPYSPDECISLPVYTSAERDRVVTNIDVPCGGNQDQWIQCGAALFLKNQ

SMILES | Reversibility of inhibition of dynein-2-dependent motility after washout ([1]; 5 µM 8, then washout, 1 mM ATP) | Velocity of dynein-2-driven microtubule gliding [1] [nm/s] | IC50 [1] [µM] | Inhibition of basal ATPase activity of GFP-dynein 1 [2] | inhibition at 40 µM [2] [%]
N#Cc1c(C2(c3ccc(Cl)cc3)CC2)nn2c1[nH]c(=O)c1cc(I)ccc12 [Compound 8, 2-[1-(4-chlorophenyl)cyclopropyl]-7-iodo-5-oxo-4H-pyrazolo[1,5-a]quinazoline-3-carbonitrile] | reversed following washout | 6 ± 2 | 2.6 ± 1.3 | did not inhibit | –
N#C/C(C(=O)c1ccc(Cl)cc1Cl)=C1\NC(=O)c2ccc(Cl)cc2N1 [ciliobrevin D, reference compound] | – | 83 ± 10 | 20 | – | ~70
